A word on the LD50: it is the dose expected to kill half of the subjects tested. A higher LD50 goes with lower toxicity.

In brackets after ≈: the same amount, converted by molar mass.

Experimental findings from patent US4593097A, “Phenazine carboxylic acid derivatives and a process for production thereof” (Kyowa Hakko Kogyo Co., Ltd., priority 1983, dated 1986) are described below.

A short description of one data set: in vivo. The conditions noted are these: mouse, ip.
The test system of data set [1] is Bacillus subtilis No. 10707. The data set is described as follows: Antibacterial activity by agar dilution method (pH 7.0), Bacillus subtilis No. 10707. In kind it is cell-based. The conditions noted are these: read-out: Minimum Inhibitory Concentration. The text has this:
(§1) Antibacterial activities of DC-86-Y, -M, -R and -C against various bacteria determined by agar dilution method (pH 7.0) are shown in Table 2.

Another data set deals with Escherichia coli ATCC 26. Description: Antibacterial activity by agar dilution method (pH 7.0), Escherichia coli ATCC 26. In kind it is cell-based. As to conditions: ATCC26, read-out: Minimum Inhibitory Concentration.
Excerpt: as §1

The test system of data set [2] is Sarcoma 180 ascites tumor cells. The data set is described as follows: Anti-tumor activity against Sarcoma 180 in mice. In kind it is in vivo, ddy male mice. The conditions noted are these: 24 h after transplantation, measured 7 days after transplantation. How it is done:
5×10^6 Sarcoma 180 ascites tumor cells were transplanted to the hypoderm of the armpit cavity of ddy male mice weighing about 20 g, one group being 6 mice. 24 hours after the transplantation, 0.2 ml of a phosphate buffer saline (PBS) solution of a test compound having various concentrations was intraperitoneally administered once. The composition of PBS is 0.8 g/dl NaCl, 0.02 g/dl KCl, […] Na2 HPO4 and 0.02 g/dl KH2 PO4 (pH 7.2). For comparison, 0.2 ml of PBS containing mitomycin C was intraperitoneally administered 24 hours after the transplantation of the tumor cells. Average tumor volume (mm^3) and T/C (T: average tumor volume of mice treated with the test compound, C: average tumor volume of mice treated with 0.2 ml of PBS intraperitoneally)were measured 7 days after the transplantation and the results shown in Table 3 were obtained.

Data set [3] concerns Staphylococcus aureus ATCC 6538P. Description: Antibacterial activity by agar dilution method (pH 7.0), Staphylococcus aureus ATCC 6538P. As to conditions: ATCC6538P, read-out: Minimum Inhibitory Concentration. In kind it is cell-based.
Excerpt: as §1

Data set [4] has as its system Shigella sonnei ATCC 9290. Description: Antibacterial activity by agar dilution method (pH 7.0), Shigella sonnei ATCC 9290. In kind it is cell-based. As to conditions: ATCC9290, read-out: Minimum Inhibitory Concentration.
Excerpt: as §1
In general terms: In agar dilution, organisms are placed on agar that contains the substance at set levels.

Data set [5] deals with Salmonella typhosa ATCC 9992. The data set is described as follows: Antibacterial activity by agar dilution method (pH 7.0), Salmonella typhosa ATCC 9992. In kind it is cell-based. As to conditions: Salmonella enterica, pH 7, read-out: Minimum Inhibitory Concentration.
Excerpt: as §1

In data set [6] the test system is Klebsiella pneumoniae ATCC 10031. The data set is described as follows: Antibacterial activity by agar dilution method (pH 7.0), Klebsiella pneumoniae ATCC 10031. In kind it is cell-based. The conditions noted are these: ATCC10031, read-out: Minimum Inhibitory Concentration.
Excerpt: as §1

In the data set “in vivo”, `CC(OC(=O)CCl)c1cccc2nc3c(C(=O)O)cccc3nc12` (centres unmarked) [DC-86-C] registered an LD50 of 40 mg/kg. For the same molecule, the MIC in data set [1] was 0.01 µg/mL (≈ 0.029 µM); in the data set with Escherichia coli ATCC 26 it was more than 100 µg/mL; in data set [3], 0.2 µg/mL (≈ 0.58 µM); in data set [4] it was 10 µg/mL (≈ 29 µM); in data set [5] it was 10 µg/mL (≈ 29 µM); in data set [6] it was more than 100 µg/mL. The results for the “T/C (average tumor volume, treated/control)” value in data set [2] (12.5 mg/kg i.p. once), in data set [2] (25 mg/kg i.p. once) and in data set [2] (50 mg/kg i.p. once) were 0.98, 0.72 and “dead”, respectively.
For `CC(OC(=O)CO)c1cccc2nc3c(C(=O)O)cccc3nc12` (centres unmarked) [DC-86-M], the LD50 in the data set “in vivo” is 20 mg/kg. For the same molecule, the MIC in data set [1] came to 0.1 µg/mL (≈ 0.306 µM); with Escherichia coli ATCC 26 it was 100 µg/mL (≈ 306 µM); in data set [3], 0.3 µg/mL (≈ 0.919 µM); in data set [4], 10 µg/mL (≈ 30.6 µM); in data set [5], 10 µg/mL (≈ 30.6 µM); in data set [6] it was 100 µg/mL (≈ 306 µM). Besides, the “T/C (average tumor volume, treated/control)” value came out at 0.97 in data set [2] (5 mg/kg i.p. once), 0.82 in data set [2] (10 mg/kg i.p. once) and 0.36 in data set [2] (20 mg/kg i.p. once).
Turning to `CC(OC(=O)COC(C)(C)C)c1cccc2nc3c(C(=O)O)cccc3nc12` (centres unmarked) [DC-86-R], the 50% lethal dose (LD50) in the data set “in vivo” came to 250 mg/kg. For the same molecule, the MIC in data set [1] was 0.7 µg/mL (≈ 1.83 µM); in the data set on Escherichia coli ATCC 26, more than 100 µg/mL; in data set [3], 3 µg/mL (≈ 7.84 µM); in data set [4] it was more than 100 µg/mL; in data set [5] it was more than 100 µg/mL; in data set [6], more than 100 µg/mL. Also, the “T/C (average tumor volume, treated/control)” value in data set [2] (50 mg/kg i.p. once) is reported as 1.06; in data set [2] (100 mg/kg i.p. once), 0.87; in data set [2] (200 mg/kg i.p. once), 0.86.
The molecule `CC(O)c1cccc2nc3c(C(=O)O)cccc3nc12` (centres unmarked) [DC-86-Y, metal not drawn] yielded an LD50 in “in vivo” of 300 mg/kg. Further, the MIC (in data set [1]; in the data set with Escherichia coli ATCC 26; in data set [3]; in data set [4]; in data set [5]; in data set [6]) was more than 100 µg/mL in each case.
In the case of `CO[C@@]12[C@H](COC(N)=O)C3=C(C(=O)C(C)=C(N)C3=O)N1C[C@@H]1N[C@@H]12` [Mitomycin C, mitomycin C, reference compound], the “T/C (average tumor volume, treated/control)” value in data set [2] (6 mg/kg i.p.) was 0.28.
